ChEMBL document CHEMBL6083286, “Discovery of ERD-12310A as an Exceptionally Potent and Orally Efficacious PROTAC Degrader of Estrogen Receptor α (ERα)” (J Med Chem, 2024)
pIC50, pKi: −log10 of the molar value. Activity calls are given as the source filed them. The rule behind the calls is not given here.

Key:
[1] = Drug concentration in SCID mouse tumor at 10 mg/kg, po administered once daily measured at 24 hrs by LC-MS/MS analysis; format: ADME, organism-based, Neoplasm; settings: read-out: Ct
[2] = Stability in mouse plasma assessed as half life; format: ADME, cell-free
[3] = molecular target: T1, Protein cereblon/Estrogen receptor (Homo sapiens, UniProt P03372+Q96SW2); test: PROTAC activity at CRBN/ERalpha in human MCF7 cells assessed as reduction ER level measured for 5 hrs by Western blot analysis; format: cell-based; settings: dose 0.5-500 nM
[4] = molecular target: T1, Protein cereblon/Estrogen receptor; test: PROTAC activity at CRBN/ERalpha in human MCF7 cells assessed as reduction in ERalpha protein level at 5 nM measured for 4 hrs in presence of lasofoxifene by Western blot analysis; format: cell-based
[5] = molecular target: T1, Protein cereblon/Estrogen receptor; test: PROTAC activity at CRBN/ERalpha in human T47D cells assessed as reduction in ERalpha protein level at 3 nM measured at 4 hrs by Western blot analysis; format: cell-based
Estrogen receptor = molecular target: T2, Estrogen receptor (Homo sapiens, UniProt P03372); test: Binding affinity to human ERalpha receptor assessed as inhibition constant
T2 sequence (P03372 whole entry): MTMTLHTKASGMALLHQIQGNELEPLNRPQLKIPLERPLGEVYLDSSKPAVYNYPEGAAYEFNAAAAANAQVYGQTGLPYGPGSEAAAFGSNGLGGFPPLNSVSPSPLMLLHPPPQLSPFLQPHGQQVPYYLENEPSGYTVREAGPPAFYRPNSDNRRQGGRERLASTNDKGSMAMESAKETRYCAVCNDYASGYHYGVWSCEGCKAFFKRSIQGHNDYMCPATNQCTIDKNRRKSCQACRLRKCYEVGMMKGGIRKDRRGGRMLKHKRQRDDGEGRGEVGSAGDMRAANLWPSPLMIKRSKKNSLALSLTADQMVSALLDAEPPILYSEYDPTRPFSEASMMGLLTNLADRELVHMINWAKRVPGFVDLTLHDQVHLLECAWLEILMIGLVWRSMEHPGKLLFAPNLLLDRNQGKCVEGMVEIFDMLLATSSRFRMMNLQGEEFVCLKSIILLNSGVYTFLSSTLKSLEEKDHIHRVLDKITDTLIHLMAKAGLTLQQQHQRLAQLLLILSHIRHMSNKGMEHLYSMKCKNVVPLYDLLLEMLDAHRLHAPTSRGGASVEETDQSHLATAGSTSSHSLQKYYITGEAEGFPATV

MCF7 = test: Antitumor activity against human MCF7 cells xenografted in SCID mouse assessed as tumor growth inhibition at 3 mg/kg, po administered for 41 to 76 days; format: functional; settings: time 41-76 day, read-out: TGI
[6] = Drug concentration in SCID mouse plasma at 10 mg/kg, po administered once daily measured at 24 hrs by LC-MS/MS analysis; format: ADME, organism-based
[7] = Drug concentration in SCID mouse tumor at 10 mg/kg, po administered daily for 3 days and measured after 6 hrs by LC-MS/MS analysis; format: ADME, organism-based, Neoplasm; settings: time 3 day, read-out: Ct
[8] = Drug concentration in SCID mouse tumor at 30 mg/kg, po administered once daily for 3 days measured after 24 hrs by LC-MS/MS analysis; format: ADME, organism-based, Neoplasm; settings: read-out: Ct
[9] = Stability in rat plasma assessed as half life; format: ADME, cell-free
[10] = molecular target: T1, Protein cereblon/Estrogen receptor; test: PROTAC activity at CRBN/ERalpha in human MCF7 cells assessed as reduction in ERalpha protein level at 5 nM measured for 4 hrs in presence of MLN-4924 by Western blot analysis; format: cell-based
Cytochrome P450 3A4 = Cytochrome P450 3A4 (Homo sapiens, UniProt P08684); test: Inhibition of CYP3A4 in human liver microsomes using testosterone as substrate preincubated for 5 mins followed by NADPH addition and measured after 10 mins by LC-MS/MS analysis; format: ADME, Microsome
[11] = Cmax in dog at 3 mg/kg, po or 1 mg/kg, iv measured upto 24 hrs by LC-MS/MS analysis; format: ADME, organism-based, Canis lupus familiaris; settings: in vivo
[12] = molecular target: T1, Protein cereblon/Estrogen receptor; test: PROTAC activity at CRBN/ERalpha in human MCF7 cells assessed as effect on GSPT1 level at 0.5 to 500 nM measured for 5 hrs by Western blot analysis; format: cell-based; settings: dose 0.5-500 nM
[13] = Metabolic stability human liver microsome assessed as half life; format: ADME; settings: microsomes
[14] = molecular target: T1, Protein cereblon/Estrogen receptor; test: PROTAC activity at CRBN/wild type ERalpha in human T47D cells assessed as reduction in ERalpha protein level at 10 to 100 nM measured at 7 hrs by Western blot analysis; format: cell-based; settings: dose 10-100 nM
Cytochrome P450 2D6 = Cytochrome P450 2D6 (Homo sapiens, UniProt P10635); test: Inhibition of CYP2D6 in human liver microsomes incubated for 5 mins in presence of NADPH by LC-MS/MS analysis; format: ADME, Microsome
[15] = Half life in rat at 3 mg/kg, po or 1 mg/kg, iv measured upto 24 hrs by LC-MS/MS analysis; format: ADME, organism-based; settings: in vivo
[16] = Plasma protein binding in rat; format: ADME, cell-free
Cytochrome P450 2C9 = Cytochrome P450 2C9 (Homo sapiens, UniProt P11712); test: Inhibition of CYP2C9 in human liver microsomes incubated for 5 mins in presence of NADPH by LC-MS/MS analysis; format: ADME, Microsome
[17] = molecular target: T1, Protein cereblon/Estrogen receptor; test: In-vivo PROTAC activity at CRBN/ERalpha in SCID mouse xenografted with human MCF7 cells assessed as reduction in ERalpha level in tumor at 30 mg/kg, po administered daily for 3 days and measured after 24 hrs by Western blot analysis; format: functional, organism-based; parameters: scale not given: the % may be the effect or the level left; settings: time 96.0 hrs

T1 sequence (Q96SW2 whole entry, looked up, one chain of several): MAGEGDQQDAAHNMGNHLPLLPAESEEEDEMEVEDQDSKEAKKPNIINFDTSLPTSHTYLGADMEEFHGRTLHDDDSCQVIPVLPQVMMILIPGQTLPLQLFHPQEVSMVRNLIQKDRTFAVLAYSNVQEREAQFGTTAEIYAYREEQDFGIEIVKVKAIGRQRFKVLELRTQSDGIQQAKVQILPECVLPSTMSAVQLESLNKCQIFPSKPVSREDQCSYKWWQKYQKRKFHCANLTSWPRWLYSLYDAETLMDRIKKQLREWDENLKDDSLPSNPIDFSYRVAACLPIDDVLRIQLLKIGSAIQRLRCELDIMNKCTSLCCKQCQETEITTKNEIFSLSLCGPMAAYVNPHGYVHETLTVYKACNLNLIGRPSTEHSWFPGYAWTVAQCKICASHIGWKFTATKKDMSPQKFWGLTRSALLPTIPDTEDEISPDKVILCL
Chain of Cytochrome P450 2D6 (P10635 whole entry): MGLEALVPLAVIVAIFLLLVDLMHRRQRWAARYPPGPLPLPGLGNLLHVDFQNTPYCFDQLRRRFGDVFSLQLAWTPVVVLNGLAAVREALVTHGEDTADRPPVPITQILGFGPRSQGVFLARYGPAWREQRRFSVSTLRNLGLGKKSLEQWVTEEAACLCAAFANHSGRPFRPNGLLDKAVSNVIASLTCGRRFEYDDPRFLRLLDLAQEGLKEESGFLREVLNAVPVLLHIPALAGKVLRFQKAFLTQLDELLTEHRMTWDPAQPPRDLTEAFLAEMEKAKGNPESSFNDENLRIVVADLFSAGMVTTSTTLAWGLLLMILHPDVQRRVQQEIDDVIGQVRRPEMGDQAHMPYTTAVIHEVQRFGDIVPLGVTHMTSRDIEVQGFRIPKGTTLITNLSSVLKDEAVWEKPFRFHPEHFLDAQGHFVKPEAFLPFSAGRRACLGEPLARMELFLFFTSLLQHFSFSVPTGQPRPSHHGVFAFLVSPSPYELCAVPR
Chain of Cytochrome P450 2C9 (P11712 whole entry): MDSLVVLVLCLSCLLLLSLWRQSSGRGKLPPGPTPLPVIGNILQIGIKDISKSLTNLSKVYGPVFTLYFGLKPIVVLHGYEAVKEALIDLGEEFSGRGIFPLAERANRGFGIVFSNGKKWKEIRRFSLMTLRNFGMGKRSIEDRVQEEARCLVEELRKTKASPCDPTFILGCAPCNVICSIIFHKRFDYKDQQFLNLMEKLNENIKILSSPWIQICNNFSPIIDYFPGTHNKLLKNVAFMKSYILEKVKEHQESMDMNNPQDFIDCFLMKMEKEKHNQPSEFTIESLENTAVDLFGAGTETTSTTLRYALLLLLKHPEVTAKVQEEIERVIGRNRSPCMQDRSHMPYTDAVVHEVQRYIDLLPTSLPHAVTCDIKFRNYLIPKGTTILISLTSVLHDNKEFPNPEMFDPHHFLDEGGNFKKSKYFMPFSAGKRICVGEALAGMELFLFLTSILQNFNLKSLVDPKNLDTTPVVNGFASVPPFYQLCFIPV
Chain of Cytochrome P450 3A4 (P08684 whole entry): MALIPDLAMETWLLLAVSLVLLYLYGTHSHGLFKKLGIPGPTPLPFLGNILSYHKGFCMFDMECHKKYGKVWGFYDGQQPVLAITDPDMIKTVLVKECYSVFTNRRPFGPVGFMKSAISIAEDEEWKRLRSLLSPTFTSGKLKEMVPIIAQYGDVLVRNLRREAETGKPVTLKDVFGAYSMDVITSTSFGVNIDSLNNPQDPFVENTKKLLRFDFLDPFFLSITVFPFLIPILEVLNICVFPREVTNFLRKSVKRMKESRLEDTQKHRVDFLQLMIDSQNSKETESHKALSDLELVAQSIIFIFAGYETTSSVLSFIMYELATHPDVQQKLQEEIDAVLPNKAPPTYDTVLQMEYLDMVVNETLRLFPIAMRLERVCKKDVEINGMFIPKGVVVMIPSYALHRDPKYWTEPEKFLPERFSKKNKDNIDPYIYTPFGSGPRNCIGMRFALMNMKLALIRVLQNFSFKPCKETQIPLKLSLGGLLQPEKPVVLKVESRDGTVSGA

O=C1CC[C@H](N2Cc3c(ccc4c3OCC43CCN(C[C@@H]4CCC5(CCN(c6ccc([C@@H]7c8ccc(O)cc8CC[C@@H]7c7ccccc7)cc6)CC5)OC4)CC3)C2=O)C(=O)N1
concentration at 24 h [1]: 94 ng/mL | t1/2 [2]: > 4 h | Activity [3]: Dose-dependent-effect | Activity [4]: inactive | Activity [5]: Active | pKi (Estrogen receptor): 9.02 | inhibition in vivo at 3 mg/kg (MCF7): 93% | concentration at 24 h [6]: 7 ng/mL | concentration at 72 h [7]: 975 ng/mL | concentration at 96 h [8]: 1030 ng/mL | t1/2 [9]: > 4 h | Activity [10]: inactive | pIC50 (Cytochrome P450 3A4): < 5.00 | Cmax [11]: 469.4 ng/mL | Activity [12]: Minimal_effect | t1/2 [13]: > 1 h | Activity [14]: Active | pIC50 (Cytochrome P450 2D6): < 5.00 | t1/2 [15]: 5.6 h | PPB [16]: 95.7% | pIC50 (Cytochrome P450 2C9): < 5.00 | Activity [17]: 71%
